Assay results taken from US8735556B2, “Sensitive and generic antibodies and multiple applications” (Randox Laboratories Limited, priority 2011, dated 2014).
In brackets after ≈: the same amount, converted by molar mass. Where two headings read alike, the source gives them in different places.

Assays:
[1] = test system: antiserum raised to Immunogen II; test: Competitive ELISA, antibody characterisation; type: binding, sheep; conditions: for % Cross-reactivity: CR based on 100% for carbamazepine, IC50 carbamazepine/IC50 CR x 100; for IC50: antiserum raised to Immunogen II, detecting agent derived from Hapten-A, competitive assay format
Method: The antibody titre is evaluated by coating a microtitre plate (Thermo Fisher Scientific NUNC, 468667) with antibody (125 μl/well) in coating buffer (10 mM Tris pH 8.5) at 37° C. for 2 hours. The plate is then washed 4 times over 10 minutes with working strength TBST. 50 μl of sample/standard (Carbamazepine, Sigma C4024) is added to the appropriate wells in triplicate, followed by 75 μl of hapten-HRP conjugate and incubated at 25° C. for 1 hour. The plate is then washed and 125 μl of TMB (Randox, 4380-15) added to each well and left at room temperature for 20 mins in the dark. The reaction is stopped using 125 μl of 0.2M sulphuric acid. The absorbances are read at 450 nm with an ELISA microplate reader (BIO-TEK Instruments, Elx800) and the means calculated. Antibody sensitivity can then be determined. […] The immunogenic mixture (1 ml) was administered to adult sheep on a monthly basis to provide target-specific polyclonal antisera. IgG was extracted from the antisera via caprylic acid/ammonium sulphate precipitation of immunoglobulin. A microtitre plate (Thermo Fisher Scientific NUNC, 468667) was coated with antibody (125 μl/well) in coating buffer (10 mM Tris pH 8.5) at 37° C. for 2 hours. […] The plate was then washed and 125 μl of TMB (Randox, 4380-15) was added to each well and left at room temperature for 20 mins in the dark. The reaction was stopped using 125 μl of 0.2M sulphuric acid. The absorbances were read at 450 nm with an ELISA microplate reader (BIO-TEK Instruments, Elx800) and the means calculated. Antibody specificity and sensitivity were then determined. […] The results of this study are presented in Table 2, cross-reactivity being calculated according to the following formula: % CR=IC50. carbamazepine/IC50. CR×100 […] CR is the concentration of carbamazepine/metabolites/structurally-related molecules that causes 50% displacement of signal.

[2] = cited from earlier work
[3] = test system: monoclonal antibody of CBZ immunoassay; conditions: cited from earlier work
[4] = test system: Siemens ADVIA carbamazepine immunoassay; conditions: cited from earlier work
[5] = test system: Beckman Coulter (BC) carbamazepine immunoassay; conditions: Beckman Coulter BC analyzers; cited from earlier work
[6] = cited from earlier work; remark: listed apart in the source
[7] = test system: Abbott Diagnostics Axsym carbamazepine immunoassay; conditions: cited from earlier work
[8] = test system: Roche Diagnostics Online TDM carbamazepine immunoassay; conditions: at 6 μg/ml of carbamazepine; cited from earlier work

| SMILES | % Cross-reactivity [1] | IC50 [1] | Cross-reactivity [5] | further results |
| --- | --- | --- | --- | --- |
| NC(=O)N1c2ccccc2C(O)C(O)c2ccccc21 (centres unmarked) [10,11-diOH-CBZ, 10,11-dihydro-10,11-dihydroxycarbamazepine] | 14.00% | 15.269 ng/mL (≈ 0.0565 µM) | – | major urinary excretory product ([2]; of CBZ, urine): 80%; Cross-reactivity [3]: negligible |
| CN(C)CCC=C1c2ccccc2CCc2ccccc21 [Amitriptyline, amitriptyline] | <<1.10% | >>200 ng/ml | 18.6% | Cross-reactivity [4]: 5.2% |
| NC(=O)N1c2ccccc2C=Cc2ccccc21 [CBZ, carbamazepine] | 100.00% | 2.135 ng/mL (≈ 0.00904 µM) | – | half-life ([2]; in patients): 18 to 65 h; toxic value ([6]; free carbamazepine): > 4.00 µg/mL; toxic value ([6]; total carbamazepine): greater than 12.00 μg/ml |
| NC(=O)N1c2ccccc2C2OC2c2ccccc21 (centres unmarked) [CBZ-E, carbamazepine-10,11-epoxide] | 68.30% | 3.125 ng/mL (≈ 0.0124 µM) | 7.4% | Cross-reactivity [7]: ≦83.0%; Cross-reactivity [8]: 14.0%; Cross-reactivity [4]: 21.8% |
| CNCCCN1c2ccccc2CCc2ccccc21 [Desipramine] | – | – | – | Cross-reactivity [7]: ≦540.0% |
| CN1C(=O)CN=C(c2ccccc2)c2cc(Cl)ccc21 [Diazepam] | – | – | 4.8% | – |
| NC(=O)N1c2ccccc2CC(O)c2ccccc21 (centres unmarked) [Hapten 10-OH-CBZ, 10,11-dihydro-10-hydroxycarbazepine] | 67.40% | 3.167 ng/mL (≈ 0.0125 µM) | – | Cross-reactivity [8]: 1.2%; Cross-reactivity [3]: negligible |
| CN(C)CCCN1c2ccccc2CCc2ccccc21 [Imipramine, imipramine] | <<1.10% | >>200 ng/ml | 5.6% | – |
| CNCCC=C1c2ccccc2CCc2ccccc21 [Nortryptyline] | – | – | 17.2% | Cross-reactivity [4]: 5.2% |
| NC(=O)N1c2ccccc2CC(=O)c2ccccc21 [Oxcarbazepine, oxcarbazepine] | 299.00% | 0.714 ng/mL (≈ 0.00283 µM) | – | Cross-reactivity [8]: 1.0%; Cross-reactivity [3]: negligible |
| c1ccc2c(c1)Nc1ccccc1S2 [Phenothiazine] | – | – | 8.6% | – |
